This is an account of results in US12441726B2, “Compounds and uses thereof” (Foghorn Therapeutics Inc., priority 2020, dated 2025).

Data set [1] has as its system Uveal melanoma cell lines, 92-1 or MP41. Nature of the data set: Comparison to clinical PKC and MEK inhibitors in uveal melanoma cell lines, 3-day growth (Compound A). Conditions: FIG. 2A and 2B. The format is cell-based. As for the experimental part: Procedure: Uveal melanoma cell lines, 92-1 or MP41, were plated in 96 well plates in the presence of growth media (see Table 26). […] Cells were incubated at 37 degrees Celsius for 3 days. After three days of treatment, cell growth was measured with Cell-titer glow (Promega), and luminescence was read on an Envision plate reader (Perkin Elmer).

Data set [2] concerns Uveal melanoma cell lines (92-1, MP41, MP38, MP46), hematologic cancer and other cancer cell lines. Kind of data set: Growth of uveal melanoma, hematological and other cancer cell lines, day 3 and day 7 (Cell-titer glo, GI50), Compound A. Format: cell-based. The following applies: FIG. 1. On the procedure: (§1) Procedure: Uveal melanoma cell lines (92-1, MP41, MP38, MP46), prostate cancer cell lines (LNCAP), lung cancer cell lines (NCI-H1299), and immortalized embryonic kidney lines (HEK293T) were plated into 96 well plates with growth media (see Table 5). […] Cells were incubated at 37 degrees Celsius for 3 days. After three days of treatment, the media was removed from the cells and 30 microliters of TrypLE (Gibco) was added to cells for 10 minutes. Cells were detached from the plates and resuspended with the addition of 170 microliters of growth media. Cells from two DMSO-treated control wells were counted, and the initial number of cells plated at the start of the experiment, were re-plated into fresh-compound containing plates for an additional four days at 37 degrees Celsius. At day 7, cells were harvested as described above. On day 3 and day 7, relative cell growth was measured by the addition of Cell-titer glo (Promega) and luminescence was measured on an Envision plate reader (Perkin Elmer). […] At the time of cell splitting on days […], cells were split into new 96 well plates, and fresh compound was added four hours after re-plating.

For another data set, the system named is parental MP41 cells. Kind of data set: 7-day growth inhibition assay, parental cells. The format is cell-based. The following applies: 7-day assay; FIG. 7B. As for the experimental part:
as §1
(§2) Procedure: MP41 uveal melanoma cells were made resistant to the PKC inhibitor (LXS196; MedChemExpress), by long-term culture in growth media (see Table 27) containing increasing concentrations of the compound, up to 1 micromolar.

In data set [3] the test system is Uveal melanoma cell lines (92-1, MP41, MP38, MP46) and Non-small cell lung cancer cells (NCIH1299). Kind of data set: Growth of uveal melanoma and non-small cell lung cancer cell lines, 3 days (Cell-titer glow). Conditions: 0 to 10 micromolar, FIG. 5. The format is cell-based. As for the experimental part:
Procedure: Uveal melanoma cell lines (92-1, MP41, MP38, MP46) and Non-small cell lung cancer cells (NCIH1299) were plated into 96 well plates with growth media (see Table 27). BRG1/BRM ATPase inhibitor, compound 67, was dissolved in DMSO and added to the cells in a concentration gradient from 0 to 10 micromolar at the time of plating. Cells were incubated at 37° C. for 3 days. After three days of treatment, cell growth was measured with Cell-titer glow (Promega), and luminescence was read on an Envision plate reader (Perkin Elmer).

In data set [4] the test system is Uveal melanoma cell lines, 92-1 or MP41. Kind of data set: Comparison to clinical PKC and MEK inhibitors in uveal melanoma cell lines, 3-day growth (Compound B). The following applies: FIG. 6A and 6B. Format: cell-based. As for the experimental part:
Procedure: Uveal melanoma cell lines, 92-1 or MP41, were plated in 96 well plates in the presence of growth media (see Table 27). […] Cells were incubated at 37° C. for 3 days. After three days of treatment, cell growth was measured with Cell-titer glow (Promega), and luminescence was read on an Envision plate reader (Perkin Elmer).

Data set [5] concerns PKC inhibitor (PKCi)-resistant MP41 uveal melanoma cells. Kind of data set: 7-day growth inhibition assay, PKC inhibitor-resistant cells. The format is cell-based. Conditions: 7-day assay. On the procedure:
as §1, §2

Data set [6] in a line: Body weight / tolerability in tumor-bearing mice. The format is in vivo. The following applies: all treatments, once daily oral gavage, 3 weeks; FIG. 8C. As for the experimental part:
Procedure: Nude mice (Envigo) were engrafted subcutaneously in the axillary region with 5×10^6 92-1 uveal melanoma cells in 50% Matrigel. Tumors were grown to a mean of ˜200 mm^3, at which point mice were grouped and dosing was initiated. […] Tumor volumes and body weights were measured over the course of 3 weeks, and doses were adjusted by body weight to achieve the proper dose in terms of mg/kg. At this time, animals were sacrificed, and tumors were dissected and imaged.

Each structure is given as a SMILES string.

For the compound `CSCC[C@H](NC(=O)c1ccc(N)cc1)C(=O)Nc1nc(-c2cccc(-c3ccncc3)c2)cs1` [Compound A], in data set [1] (3 days, 0 to 10 micromolar), the “growth inhibition compared to clinical PKC (LXS196) and MEK (Selumetinib) inhibitors” value is “comparable growth inhibition of uveal melanoma cells as the clinical PKC and MEK inhibitors”. Also, in data set [1], the “onset of inhibition compared to clinical PKC and MEK inhibitors” value is “faster onset of inhibition than the clinical PKC and MEK inhibitors”. Besides, the “sensitivity of cell lines to BRG1/BRM inhibition (growth)” value in data set [2] (uveal melanoma and hematologic cancer cell lines vs other tested cell lines, 0 to 10 micromolar) is reported as “more sensitive to BRG1/BRM inhibition than the other tested cell lines”. In data set [2] (uveal melanoma and hematologic cancer cell lines), the “duration of growth inhibition” value is listed as “maintained through day 7”.
On to `CSCC[C@H](NC(=O)c1ccn(S(C)(=O)=O)c1)C(=O)Nc1nc(-c2cccc(-c3ccncc3)c2)cs1` [Compound B, (S)-1-(methylsulfonyl)-N-(4-(methylthio)-1-oxo-1-((4-(3-(pyridin-4-yl)phenyl)thiazol-2-yl)amino)butan-2-yl)-1H-pyrrole-3-carboxamide], for which, in the data set on parental MP41 cells, the “growth inhibition of parental cell line” value is reported as “strong growth inhibition”. The “growth inhibition in the uveal melanoma cell lines” value in data set [3] is reported as “potent growth inhibition”. For the same compound, the “growth inhibition compared to clinical PKC (LXS196) and MEK (Selumetinib) inhibitors” value in data set [4] (3 days, 0 to 10 micromolar) is “more potent effects on growth inhibition of uveal melanoma cells as compared to the clinical PKC and MEK inhibitors”. Besides, the “onset of growth inhibition compared to clinical PKC and MEK inhibitors” value in data set [4] is “faster onset of growth inhibition than the clinical PKC and MEK inhibitors”. Moreover, in data set [5] (FIG. 7B), the “growth inhibition of PKCi-resistant cell line” value was “strong growth inhibition” and the “sensitivity of PKCi-resistant cells relative to parental MP41 cells” value is on record as “more sensitive to Compound B than were the parental MP41 cells”.
As for `C[C@@H]1CN(c2cccc(-c3csc(NC(=O)CNC(=O)c4ccn(C(C)(C)C)c4)n3)n2)C[C@H](C)O1` [Compound C, 1-(tert-butyl)-N-(2-((4-(6-(cis-2,6-dimethylmorpholino)pyridin-2-yl)thiazol-2-yl)amino)-2-oxoethyl)-1H-pyrrole-3-carboxamide], the “tolerability / body weight change” value in data set [6] is given as “well tolerated with no body weight loss observed”.
For the compound `CC1(N)CCN(c2cccnc2NC(=O)c2nc(-c3ncccc3C(F)(F)F)cnc2N)CC1` [LXS196, reference compound], in data set [5] (FIG. 7A), the “tolerated concentration for growth, PKCi-resistant vs parental cells” value is recorded as “could tolerate growth at higher concentrations of LXS196 than could the parental MP41 cell line”.
